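Assay format: 96-well plates, 48-hour exposure. GI50 = concentration required for 50% inhibition of growth. Definition used: TGI = concentration required for complete inhibition of growth.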

Holding throughout (experiment): growth of human tumour cells (NCI), 48 h
The subject of experiment [1] is A498 renal.
For experiment [2], the system named is CCRF-CEM leukemia.
Experiment [3] relates to HOP-62 NSCLC.
The subject of experiment [4] is K-562 leukemia.
The subject of experiment [5] is KM12 colon.
Experiment [6] deals with MCF7 breast.
In experiment [7] the test system is SNB-75 CNS.
Experiment [8] relates to SW-620 colon.

Consider `O=C1N[C@@H]2[C@@H](O)[C@@H](O)[C@H](O)C[C@H]2c2cc3c(c(O)c21)OCCO3`, for which the GI50 is 392 nM in experiment [1]; 73.7 nM in experiment [2]; 282 nM in experiment [3]; 130 nM in experiment [4]; 169 nM in experiment [5]; 154 nM in experiment [6]. For the same compound, the GI50 was 466 nM in experiment [7] and 233 nM in experiment [8]. The TGI in experiment [1] amounted to 1.58 µM; in experiment [2], 1.83 µM; in experiment [3], 1.32 µM; in experiment [4] it was 11.2 µM; in experiment [5], 1.1 µM; in experiment [6], 0.796 µM. For the same compound, the TGI came out at 2.62 µM in experiment [7] and 1.55 µM in experiment [8].

Regarding `Nc1nc(/C=C\c2ccc([N+](=O)[O-])s2)nc(N2CCN(c3ccccc3)CC2)n1`, the GI50 in experiment [1] is 74.6 nM; in experiment [2] it was 29300 nM; in experiment [3], 29000 nM; in experiment [4] it was 15300 nM; in experiment [5], 16600 nM; in experiment [6] it was 14800 nM. For the same compound, the GI50 is 33100 nM in experiment [7] and 6300 nM in experiment [8]. Also, the TGI turned out to be 15.5 µM in experiment [1]; 79.1 µM in experiment [2]; 64.3 µM in experiment [3]; 49.5 µM in experiment [4]; 38.7 µM in experiment [5]; 49.4 µM in experiment [6]. Also, the TGI in experiment [7] is 60.5 µM; in experiment [8], 27.9 µM.

In the case of `COc1c/c(=C2\C=c3ccccc3=N2)[nH]/c1=C\c1[nH]c(C)cc1C`, the GI50 in experiment [1] is 242 nM; in experiment [2], less than 10 nM; in experiment [3], 468 nM; in experiment [4] it was 68.5 nM; in experiment [5], 21.6 nM; in experiment [6] it was 46.4 nM. The values for the GI50 in experiment [7] and in experiment [8] were 175 nM and less than 10 nM, respectively. The TGI in experiment [1] was 7.47 µM; in experiment [2], 6.64 µM; in experiment [3] it was 6.87 µM; in experiment [4], 8.33 µM; in experiment [5] it was 10.6 µM; in experiment [6] it was more than 100 µM. Besides, the TGI is 4.19 µM in experiment [7] and 51.4 µM in experiment [8].

`O=C(O)CCNCC(=O)O`: the TGI in experiment [1], in experiment [2], in experiment [3], in experiment [4], in experiment [5] and in experiment [6] was more than 100 µM each time. For the same compound, the TGI in experiment [7] and in experiment [8] was more than 100 µM throughout.

In the case of `Cc1c(-c2cnccn2)ssc1=S`, the TGI is 59.7 µM in experiment [1]; more than 77.4 µM in experiment [2]; 92 µM in experiment [3]; more than 100 µM in experiment [4]; more than 100 µM in experiment [5]; more than 100 µM in experiment [6]. The TGI in experiment [7] is 59.8 µM; in experiment [8] it was more than 100 µM.

With `CC(C)C[C@H](NC(=O)CNC(=O)c1cc(Cl)ccc1Cl)B(O)O`, the GI50 was less than 15.8 nM in experiment [1]; 20.3 nM in experiment [2]; 47.2 nM in experiment [3]; 30 nM in experiment [4]; 29.5 nM in experiment [5]; less than 19.6 nM in experiment [6]. Further, the figures for the GI50 in experiment [7] and in experiment [8] were 25.6 nM and less than 17.3 nM, respectively. Also, the TGI in experiment [1] is 0.0336 µM; in experiment [2], more than 100 µM; in experiment [3], 0.429 µM; in experiment [4], 1.21 µM; in experiment [5], 0.101 µM; in experiment [6], more than 52.4 µM. The TGI in experiment [7] was determined as 0.124 µM.

On to `CCOC(=O)C1=CCCC[C@H]1S(=O)(=O)Nc1ccc(F)cc1Cl`, for which the GI50 in experiment [1] was 42600 nM; in experiment [2], 21400 nM; in experiment [3], 25500 nM; in experiment [4] it was 26400 nM; in experiment [5], 27100 nM; in experiment [6] it was 19900 nM. In addition, the figures for the GI50 in experiment [7] and in experiment [8] were 25100 nM and 30000 nM, respectively. Further, the TGI is more than 100 µM in experiment [1]; 84.9 µM in experiment [2]; more than 100 µM in experiment [3]; more than 100 µM in experiment [4]; more than 100 µM in experiment [5]; more than 100 µM in experiment [6]. Also, the TGI in experiment [7] and in experiment [8] was more than 100 µM in each case.

For the compound `CC(C)(C)C(=O)OCOP(=O)(NCc1ccccc1)C1CCCN(O)C1=O` (stereo unspecified), the GI50 in experiment [1] is 692 nM; in experiment [2], 558 nM; in experiment [3], 2550 nM; in experiment [4], 1130 nM; in experiment [5] it was 1130 nM; in experiment [6], 2410 nM. Also, the GI50 in experiment [7] is 4970 nM; in experiment [8], 2870 nM. Also, the TGI in experiment [1] is 9.18 µM; in experiment [2], more than 100 µM; in experiment [3] it was 32.8 µM; in experiment [4], more than 100 µM; in experiment [5] it was 3.56 µM; in experiment [6] it was 11.1 µM. The figures for the TGI in experiment [7] and in experiment [8] were 39.1 µM and more than 100 µM, respectively.

As to `CN(Cc1ccccc1)Cn1ccnc1`, the TGI in experiment [1] was more than 100 µM; in experiment [2], more than 71.2 µM; in experiment [3], more than 100 µM; in experiment [4] it was more than 100 µM; in experiment [5] it was more than 100 µM; in experiment [6] it was more than 100 µM. For the same compound, the TGI in experiment [7] and in experiment [8] was more than 100 µM in each case.

With `NS(=O)(=O)OC[C@H]1C[C@@H](Nc2ccnc3cc(-c4cccc(SC(F)(F)F)c4)nn23)[C@H](O)[C@@H]1O`, the GI50 was 13 nM in experiment [1]; less than 18.1 nM in experiment [2]; 17.3 nM in experiment [3]; less than 14 nM in experiment [4]; 99.1 nM in experiment [5]; 21.4 nM in experiment [6]. In addition, the GI50 is 39.7 nM in experiment [7] and 42.2 nM in experiment [8]. Moreover, the TGI came to 0.0262 µM in experiment [1]; 13.2 µM in experiment [2]; 0.0489 µM in experiment [3]; 1.23 µM in experiment [4]; 0.368 µM in experiment [5]; 0.173 µM in experiment [6]. For the same compound, the figures for the TGI in experiment [7] and in experiment [8] were 0.187 µM and 1.37 µM, respectively.

In the case of `O=c1c2c(nc3n1CCS3)[nH]c1cc([N+](=O)[O-])ccc12`, the GI50 in experiment [1] is more than 100000 nM; in experiment [2], more than 100000 nM; in experiment [3], more than 100000 nM; in experiment [4], more than 100000 nM; in experiment [5] it was more than 100000 nM; in experiment [6] it was 7570 nM. For the same compound, the results for the GI50 in experiment [7] and in experiment [8] were 57100 nM and more than 100000 nM, respectively. In addition, the TGI in experiment [1] was more than 100 µM; in experiment [2], more than 100 µM; in experiment [3], more than 100 µM; in experiment [4], more than 100 µM; in experiment [5], more than 100 µM; in experiment [6], 30.9 µM. Moreover, the TGI in experiment [7] and in experiment [8] was more than 100 µM in each case.

The values above are taken from PubChem BioAssay (NCI).
